Patent US20220362386A1, “LIQUID COMPOSITIONS COMPRISING A LEVODOPA AMINO ACID CONJUGATE AND USES THEREOF” (NeuroDerm, Ltd., priority 2019, published 2022)
Where a name gives a salt, the structure may show the parent alone. Read-outs that look alike come from different tables or passages of the source. Non-standard residues stand in square brackets, D forms with d. Residues, ends and D or L forms follow the SMILES beside them. Dopa = N[C@@H](Cc1ccc(O)c(O)c1)C(=O)O

How the values were obtained:
[1] = Human blood stability test; format: in vitro ADME; design: key: slope of % decrease of remaining compound over time; higher = faster metabolism; details: slope of the percentage decrease of remaining compound; substrate 10 μM; 0-60 minutes
Method: The stability of several LDAA compounds in human blood was tested. The substrate concentration was 10 μM and the incubation time 0, 5, 15, 30 and 60 minutes.
The results are described in Table 19, wherein the results describe the Ke, i.e., the slope of the percentage decrease of the remaining amount of the compound, measured at each of the above time points, such that the higher the Ke the faster the metabolism.

[2] = In-vitro absorption, Caco-2 A-B permeability; format: in vitro ADME, human; details: human, Caco-2, pH 7.4, Caco-2 A-B, without verapamil; for Papp A→B at 60 min, 10 μM: 1.0E−05M
Method: (§1) Conditions may be adjusted when necessary.
(§2) D denotes donor and R is receiver. […] V is the volume of the donor or receiver.
(§3) The test was performed with and without verapamil, which is a permeation inhibitor, and the results are presented in Tables 22 (without verapamil) and 34 (with verapamil).

P-gp = experiment: In-vitro absorption, Caco-2 A-B permeability; format: in vitro ADME, human; details: human, Caco-2, pH 7.4, with verapamil 100 μM on both the A and B sides, Caco-2 A-B, in the presence of verapamil
Method: as §1, §2, §3

[3] = Protein binding, equilibrium dialysis method; format: in vitro ADME, human; details: human, human plasma, pH 7.4, 1.0E-05M
Method: (§4) The protein binding values of various LDAA compounds in their TFA salt form (10^−5M) were tested in human plasma. The equilibrium dialysis technique was used to separate the fraction of the test compound that was unbound from the fraction of the test compound that bound to proteins during the test. The test was performed on 96-well plates in a dialysis block constructed from Teflon™.
(§5) The protein containing matrix used was human plasma, wherein the assay matrix was human serum albumin and alpha-1 acid glycoprotein. The protein matrix was spiked with each test compound at 10 μM (by default, n=2) with a final DMSO concentration of 1%. The dialysate compartment is loaded with phosphate buffered saline (PBS, pH 7.4), and the sample compartment was loaded with an equal volume of the spiked protein matrix. The dialysis plate was then sealed and incubated at 37° C. for 4 h.
(§6) Following the incubation, samples were taken from each compartment, diluted with PBS followed by the addition of acetonitrile, after which the samples were centrifuged. The supernatants were collected and analyzed by HPLC-MS/MS. The HPLC tests included a binary LC pump with an autosampler, a C18 column (2×20 mm), and gradient elution. The HPLC conditions were adjusted when necessary.
(§7) A control sample (n=2) was prepared from the spiked protein matrix in the same manner; however, no dialysis was performed on the control. It is noted that the control sample served as the bases for the recovery determination.
(§8) Acebutolol, quinidine, and warfarin were used in each assay as reference compounds, wherein it is known that those reference compounds provide low, medium and high human plasma protein binding values, respectively.
(§9) The % of the tested compound that is bound to proteins and the recovery values were calculated as follows:
(§10) Protein binding (%)=100×(Areap−Areab)/Areap
(§11) Recovery (%)=100×(Areap−Areab)/Areac
(§12) The determination of the recovery % serves as an indicator of reliability of the calculated protein binding value. […] This is most likely due to non-specific binding or degradation of the test compound. It is noted that a recovery of above 60% is considered to be reliable, while under 60% recovery, the results of the test are considered to be unreliable.

human plasma = experiment: Protein binding, equilibrium dialysis method; format: in vitro ADME; details: 1.0E-05M; 37° C., 4 h
Method: as §4, §5, §6, §7, §8, §9, §10, §11, §12

[4] = Comparative formulation tests, physical stability (Tables 32a-c, 33a-c); format: physicochemical; details: LDAA TFA salt/CD formulation; for Physical stability (visual), Day 1: Day 1, room temperature; for Physical stability (visual), Day 2: Day 2, room temperature; for Physical stability (visual), Day 5: Day 5, room temperature after two days at 2-8° C.; for Physical stability (visual), Day 6: Day 6, room temperature after two days at 2-8° C.; for Physical stability (visual), Day 40: Day 40, returned to 2-8° C.
Method: It is noted that the formulations were similarly to those above; however, CD was added, and further, the amounts of the antioxidants, i.e., ascorbic acid and NAC, were added at three different concentrations, as detailed in Tables 32a-c below. Further, an additional amount of arginine was added to the solution in order to adjust the pH to a physiologically acceptable pH.
The formulations prepared as detailed in Tables 32a, 32b and 32c were (a) held at room temperature for two days; (b) transferred to a refrigerator (2-8° C.) for two days; and (c) transferred from the refrigerator to room temperature for an additional two days, during which they were assessed again for precipitants. The formulations were then returned to the refrigerator (2-8° C.) and assessed for precipitants on day 40. The physical stability of each formulation was assessed on the first two days and again on the last two days. The physical stability of the formulations was assessed visually. A clear solution was considered to be stable, while a solution comprising precipitants was considered to be physically unstable. The stability results of the formulations of Tables 32a, 32b and 32c are detailed in Tables 33a, 33b and 33c, respectively.

[5] = read-out: Percent Recovery Mean
[6] = NB 144-15, ~0.1% Asc + ~0.1% NAC
[7] = NB 144-18, ~0.4% Asc + ~0.4% NAC
[8] = NB 144-20, ~0.8% Asc + ~0.8% NAC

Structure (SMILES)	Ke [1]	Papp A→B at 60 min, 10 μM ([2]; read-out: Permeability 1st)	Papp A→B at 60 min, 10 μM ([2]; read-out: Permeability 2nd)	Papp A→B at 60 min, 10 μM ([2]; read-out: Permeability Mean)	recovery at 60 min, 10 μM ([2]; read-out: Percent Recovery 1st)	recovery at 60 min, 10 μM ([2]; read-out: Percent Recovery 2nd)	recovery at 60 min, 10 μM [2, 5]	recovery at 60 min, 10 μM (P-gp; read-out: Percent Recovery 1st)	recovery at 60 min, 10 μM (P-gp; read-out: Percent Recovery 2nd)	recovery at 60 min, 10 μM (P-gp; [5])	recovery at 4 h, 10 μM ([3]; read-out: % Recovery 1st)	recovery at 4 h, 10 μM ([3]; read-out: % Recovery 2nd)	recovery at 4 h, 10 μM ([3]; read-out: % Recovery Mean)	% Protein Bound 1st (human plasma)	% Protein Bound 2nd (human plasma)	% Protein Bound Mean (human plasma)	Physical stability (visual), Day 1 [4, 6]	Physical stability (visual), Day 2 [4, 6]	Physical stability (visual), Day 5 [4, 6]	Physical stability (visual), Day 6 [4, 6]	other results
N[C@@H](CSC[C@H](NC(=O)[C@@H](N)Cc1ccc(O)c(O)c1)C(=O)O)C(=O)O (single isomer, unassigned; peak 2) [LD-LA2 TFA salt, Levodopa Lanthionine Peak 2 TFA Salt]	0.0128	20.2 ×10⁻⁶ cm/s	17.8 ×10⁻⁶ cm/s	19 ×10⁻⁶ cm/s	86%	91%	89%	89%	87%	88%											
N[C@@H](Cc1ccc(O)c(O)c1)C(=O)O [LD (control), L-3,4-dihydroxyphenylalanine, reference compound]		1.15 ×10⁻⁶ cm/s	1.25 ×10⁻⁶ cm/s	1.2 ×10⁻⁶ cm/s	37%	22%	29%	63%	41%	52%											
N[C@@H](Cc1ccc(O)c(O)c1)C(=O)N[C@@H](Cc1c[nH]c2ccccc12)C(=O)O [LD-Trp TFA salt, Levodopa Tryptophan] (H-[Dopa]-Trp-OH)		0.04 ×10⁻⁶ cm/s	0.03 ×10⁻⁶ cm/s		52%	51%	51%	50%	45%	47%	68%	74%	71%	54.8%	66%	60%	Stable	Stable	Stable	Stable	Physical stability (visual), Day 40 [4, 6]: Stable; Physical stability (visual), Day 1 [4, 7]: Stable; Physical stability (visual), Day 2 [4, 7]: Stable; Physical stability (visual), Day 5 [4, 7]: Stable; Physical stability (visual), Day 6 [4, 7]: Stable; Physical stability (visual), Day 40 [4, 7]: Stable; Physical stability (visual), Day 1 [4, 8]: Stable; Physical stability (visual), Day 2 [4, 8]: Stable; Physical stability (visual), Day 5 [4, 8]: Stable; Physical stability (visual), Day 6 [4, 8]: Stable; Physical stability (visual), Day 40 [4, 8]: Stable
N[C@@H](Cc1ccc(O)c(O)c1)C(=O)N[C@@H](Cc1ccc(O)cc1)C(=O)O [LD-Tyr TFA salt, Levodopa Tyrosine TFA Salt] (H-[Dopa]-Tyr-OH)	0.0426	0.05 ×10⁻⁶ cm/s	0.04 ×10⁻⁶ cm/s		45%	39%	42%	40%	39%	40%							Stable	Stable	Precipitated	Precipitated	Physical stability (visual), Day 40 [4, 6]: Precipitated; Physical stability (visual), Day 1 [4, 7]: Stable; Physical stability (visual), Day 2 [4, 7]: Stable; Physical stability (visual), Day 5 [4, 7]: Stable; Physical stability (visual), Day 6 [4, 7]: Stable; Physical stability (visual), Day 40 [4, 7]: Stable; Physical stability (visual), Day 1 [4, 8]: Stable; Physical stability (visual), Day 2 [4, 8]: Stable; Physical stability (visual), Day 5 [4, 8]: Stable; Physical stability (visual), Day 6 [4, 8]: Stable; Physical stability (visual), Day 40 [4, 8]: Stable

Now from value to molecule, other results behind:

Ke [1]	Papp A→B at 60 min, 10 μM ([2]; read-out: Permeability 1st)	Papp A→B at 60 min, 10 μM ([2]; read-out: Permeability 2nd)	Papp A→B at 60 min, 10 μM ([2]; read-out: Permeability Mean)	recovery at 60 min, 10 μM ([2]; read-out: Percent Recovery 1st)	recovery at 60 min, 10 μM ([2]; read-out: Percent Recovery 2nd)	recovery at 60 min, 10 μM [2, 5]	recovery at 60 min, 10 μM (P-gp; read-out: Percent Recovery 1st)	recovery at 60 min, 10 μM (P-gp; read-out: Percent Recovery 2nd)	recovery at 60 min, 10 μM (P-gp; [5])	recovery at 4 h, 10 μM ([3]; read-out: % Recovery 1st)	recovery at 4 h, 10 μM ([3]; read-out: % Recovery 2nd)	recovery at 4 h, 10 μM ([3]; read-out: % Recovery Mean)	% Protein Bound 1st (human plasma)	% Protein Bound 2nd (human plasma)	% Protein Bound Mean (human plasma)	Structure (SMILES)	Physical stability (visual), Day 1 [4, 6]	Physical stability (visual), Day 2 [4, 6]	Physical stability (visual), Day 5 [4, 6]	Physical stability (visual), Day 6 [4, 6]	other results
0.0038	0.6 ×10⁻⁶ cm/s	0.47 ×10⁻⁶ cm/s	0.5 ×10⁻⁶ cm/s	62%	78%	70%	65%	62%	63%							NC(=O)C[C@H](NC(=O)[C@@H](N)Cc1ccc(O)c(O)c1)C(=O)O [LD-Asn TFA salt, Levodopa Asparagine TFA Salt] (H-[Dopa]-Asn-OH)					
	1.83 ×10⁻⁶ cm/s	1.47 ×10⁻⁶ cm/s	1.7 ×10⁻⁶ cm/s	68%	70%	69%	74%	69%	71%	77%	78%	78%	99.7%	99.8%	99%	NC(=O)CC[C@H](NC(=O)[C@@H](N)Cc1ccc(O)c(O)c1)C(=O)O [LD-Gln TFA salt, Levodopa Glutamine TFA Salt] (H-[Dopa]-Gln-OH)					
